The source of these data is US20260283988A1, “FERROPTOSIS INHIBITORS” (priority 2023, published 2026).

pIC50: −log10 of the molar value. Where two headings read alike, the source gives them in different places.

The test system of one series is HT-1080. Put plainly: Ferroptosis inhibition, cell viability assay (CellTiter-Glo). It counts as cell-based, Human. The note with it: for pIC50: Homo sapiens; for cellular efficacy/toxicity window: cytotoxic IC50 versus ferroptosis inhibition IC50, 1080 min. How it is done: Cell lines: Human fibrosarcoma cell line HT-1080 and immortalized Mouse Embryonic Fibroblasts (MEF). MEFs were a gift from Daniel Krappmann, HT-1080 were purchased from ATCC and both cell lines were grown in Dulbecco's Modified Eagle's medium (Thermo Fisher Scientific, 41966-029) supplemented with 10% fetal bovine serum (FBS, Thermo Fisher Scientific), 1% Penicillin-Streptomycin (Thermo Fisher Scientific) and 1% nonessential amino acids (MEM NEAA, Thermo Fisher Scientific). Cells were grown at 37° C. and 5% CO2.
HT-1080 were seeded into 384-well plates (CulturPlates, PerkinElmer) with a density of 750 cells per well. After 24 h of growth, cells were treated with 10 or 12-point serial dilutions of compounds in indicated concentrations for 18 h. Viability was detected by using CellTiter-Glo® 2.0 Regent (Promega) according to the manufacturer's instruction and luminescence was read out in an EnVison 2104 Multilabel plate reader (PerkinElmer).
For orientation: In ATP-based viability assays light output follows the ATP content of the culture.

A short description of series [1]: Cytotoxicity, cell viability assay. Format: cell-based, Human. The note with it: human, ht-1080 cells. The procedure:
After 24 h of growth, cells were treated with 10 or 12-point serial dilutions of compounds in indicated concentrations for 18 h.

[2] abbreviates: HT-1080, based on the assays of example 1, read-out: IC50 (Ferroptosis inhibition).
[3] abbreviates: * = signal quenching at higher concentration, toxicity might be less than indicated, read-out: cytotoxic IC50.
Where [4] appears, read: HT-1080, read-out: IC50 (Ferroptosis inhibition).

A word on the pIC50: it is the IC50 on a negative log10 scale, so that one unit is a factor of ten. For the compound `COc1ccc(CC2=CC(=O)c3ccccc3C2=O)cc1` [iQFerr31, 2-(4-methoxybenzyl)-1,4-naphtoquinone], the pIC50 in the series on HT-1080 (setting [2]) was 5.98. In the series with HT-1080, the cellular efficacy/toxicity window is given as 8-fold. Further, in series [1] (setting [3]), the CC50 at 18 h stood at 8.7 µM.
The corresponding values for `CN(C)c1ccc(NC2=CC(=O)c3ccccc3C2=O)cc1` [iQFerr19, 2-[4-(dimethylamino)-anilino]-1,4-naphtoquinone] are 7.49, 182-fold and 5.85 µM.
For the compound `CC(C)=CC[C@H](O)C1=CC(=O)c2c(O)ccc(O)c2C1=O` [iQFerr04, Alkannin], the negative-log IC50 (pIC50) in the series with HT-1080 (setting [4]) is below 6.00. Moreover, in series [1] (setting [3]), the CC50 at 18 h came out at 0.573 µM.
In the case of `Cc1ccc(NC2=CC(=O)c3ccccc3C2=O)c(C)c1` [iQFerr37, 2-[(2,4-dimethylphenyl)amino]-1,4-dihydronaphthalene-1,4-dione], the pIC50 in the series on HT-1080 (setting [2]) was 7.81. In addition, the cellular efficacy/toxicity window in the series with HT-1080 is on record as 3162-fold. For the same compound, in series [1] (setting [3]), the CC50 at 18 h is 48.8 µM.
The corresponding values for `COC1=C(OC)C(=O)C(CC=C(C)C)=C(C)C1=O` [iQFerr07, Coenzyme Q1] are 7.52, 333-fold and 10 µM.
As for `Cc1ccc(NC2=CC(=O)c3ccccc3C2=O)cc1` [iQFerr22, 2-(4-methylanilino)-1,4-naphtoquinone], the pIC50 in the series with HT-1080 (setting [2]) was 7.81. For the same compound, the cellular efficacy/toxicity window in the series with HT-1080 is 354-fold. The CC50 at 18 h in series [1] (setting [3]) was 5.5 µM.
In the case of `Cc1ccc(C(C2=C(O)C(=O)c3ccccc3C2=O)c2ccccc2)cc1` (stereo not shown) [iQFerr32, 2-hydroxy-3-[(4-methylphenyl)phenyl-methyl]-1,4-naphtoquinone], in the series with HT-1080 (setting [2]), the pIC50 was 4.40. Also, the CC50 at 18 h in series [1] (setting [3]) stood at 34.2 µM.
In the case of `O=C1C(Cl)=C(Nc2ccccc2)C(=O)c2ccccc21` [iQFerr16, 2-anilino-3-chloro-1,4-naphtoquinone], the negative logarithm of the IC50 (pIC50) in the series on HT-1080 (setting [2]) was 8.35. Moreover, the cellular efficacy/toxicity window with HT-1080 is 62-fold. Moreover, the CC50 at 18 h in series [1] (setting [3]) stood at 0.279 µM.
The corresponding values for `COc1ccc(NC2=C(Cl)C(=O)c3ccccc3C2=O)cc1` [iQFerr12, 2-chloro-3-(4-methoxyanilino)-1,4-naphtoquinone] are 8.22, 586-fold and 3.52 µM.
The corresponding values for `O=C(O)c1ccccc1NC1=CC(=O)c2c(O)cccc2C1=O` [iQFerr23] are 5.46, 5-fold and 16.4 µM.
The corresponding values for `CCc1ccc(NC2=C(Cl)C(=O)c3ccccc3C2=O)cc1` [iQFerr10, 2-chloro-3-(4-ethylanilino)-1,4-naphtoquinone] are 8.10, 105-fold and 0.844 µM.
On to `CN(C)c1ccc(C(C2=C(O)C(=O)c3ccccc3C2=O)c2ccccc2)cc1` (stereo not shown) [iQFerr33, 2-[(4-dimethylamino-phenyl)phenylmethyl]-3-hydroxy-1,4-naphtoquinone], for which the pIC50 in the series with HT-1080 (setting [2]) is 5.12. For the same compound, in the series with HT-1080, the cellular efficacy/toxicity window is 9-fold. Besides, the CC50 at 18 h in series [1] (setting [3]) stood at 71.9 µM.
On to `CCOc1ccc(NC2=CC(=O)c3ccccc3C2=O)cc1` [iQFerr21, 2-(4-ethoxyanilino)-1,4-naphtoquinone], for which the pIC50 in the series on HT-1080 (setting [2]) was 7.37. The cellular efficacy/toxicity window in the series with HT-1080 is 199-fold. Besides, in series [1] (setting [3]), the CC50 at 18 h amounted to 8.57 µM.
The matching figures for `O=C(O)CCCNC1=C(Cl)C(=O)c2ccccc2C1=O` [iQFerr15, 4-[(3-chloro-1,4-dioxo-1,4-dihydronaphthalen-2-yl)amino]butanoic acid]: 5.87, 159-fold and 215 µM.
The matching figures for `Cc1ccc(N(CCCC(N)=O)C2=CC(=O)c3ccccc3C2=O)c(C)c1` [iQFerr40, 4-[(2,4-dimethylphenyl)(1,4-dioxo-1,4-dihydronaphthalen-2-yl)amino]butanamide]: 6.72, 1,2-fold and 0.23 µM.
The matching figures for `Cc1ccc(N(CCCC(=O)O)C2=CC(=O)c3ccccc3C2=O)c(C)c1` [iQFerr42, 4-[(2,4-dimethylphenyl)(1,4-dioxo-1,4-dihydronaphthalen-2-yl)amino]butanoic acid]: 6.33, 0,47-fold and 0.219 µM.
Consider `O=C(O)c1ccc2c(c1)C(=O)c1ccccc1C2=O` [iQFerr08, Anthraquinone-2-carboxyclic acid], for which the pIC50 with HT-1080 (setting [4]) is 4.89. Besides, the CC50 at 18 h in series [1] was above 100 µM.
For the compound `O=C1C=C(Cc2ccc(F)cc2)C(=O)c2ccccc21` [iQFerr28, 2-(4-fluorobenzyl)-1,4-naphtoquinone], the pIC50 with HT-1080 (setting [2]) was 7.49. The cellular efficacy/toxicity window in the series with HT-1080 is 45-fold. The CC50 at 18 h in series [1] (setting [3]) is 1.45 µM.
Take `CC(C)=CC[C@@H](O)C1=CC(=O)c2c(O)ccc(O)c2C1=O` [iQFerr03, Shikonin]: the negative logarithm of the IC50 (pIC50) with HT-1080 (setting [4]) was below 6.00. Besides, the CC50 at 18 h in series [1] (setting [3]) was 0.269 µM.
With `O=C1C(Cl)=C(Nc2ccc(F)cc2)C(=O)c2ccccc21` [iQFerr17, 2-chloro-3-(4-fluoroanilino)-1,4-naphtoquinone], the negative-log IC50 (pIC50) in the series with HT-1080 (setting [2]) is 8.21. Moreover, the cellular efficacy/toxicity window with HT-1080 is recorded as 65-fold. For the same compound, in series [1] (setting [3]), the CC50 at 18 h came to 0.397 µM.
Consider `O=C1c2ccccc2C(=O)c2c1c(-c1ccccc1)nn2-c1ccccc1` [iQFerr24, 1,3-diphenyl-1H-benzo-f-indazole-4,9-dione], for which the pIC50 in the series with HT-1080 (setting [2]) is below 4.00.
As to `O=C1C=C(Nc2ccccc2C(=O)O)C(=O)C=C1Nc1ccccc1C(=O)O` [QFerr26, 2,2-(3,6-dioxo-1,4-cyclohexadiene-1,4-diyl-diimino)dibenzoic acid], the pIC50 with HT-1080 (setting [2]) was below 4.00. Further, in series [1] (setting [3]), the CC50 at 18 h worked out at 35.4 µM.
As for `CCOc1ccc(NC2=CC(=O)C=CC2=O)cc1` [iQFerr27, 2-(4-ethoxyanilino)-benzo-1,4-quinone], the pIC50 with HT-1080 (setting [2]) is 6.31. Further, the cellular efficacy/toxicity window in the series on HT-1080 is recorded as 4-fold. Also, the CC50 at 18 h in series [1] (setting [3]) was 2.16 µM.
Consider `O=C(O)c1ccc(NC2=C(Cl)C(=O)c3ccccc3C2=O)cc1` [iQFerr18, 4-[(3-chloro-1,4-dioxo-1,4-dihydronaphthalen-2-yl)amino]benzoic acid], for which the negative logarithm of the IC50 (pIC50) in the series on HT-1080 (setting [2]) was 7.03. In addition, in the series with HT-1080, the cellular efficacy/toxicity window is on record as 27-fold. In addition, in series [1] (setting [3]), the CC50 at 18 h was found to be 2.55 µM.
Consider `CC(C)=CCCC1=CC(=O)c2c(O)ccc(O)c2C1=O` [iQFerr05, Deoxyshikonin], for which the negative logarithm of the IC50 (pIC50) in the series with HT-1080 (setting [4]) is 6.54. Further, the cellular efficacy/toxicity window in the series with HT-1080 was 6-fold. Besides, the CC50 at 18 h in series [1] (setting [3]) stood at 1.62 µM.
Turning to `CC1=C(Nc2ccc(C)cc2)C(=O)c2ccccc2C1=O` [iQFerr45, 2-methyl-3-[(4-methylphenyl)amino]-1,4-dihydronaphthalene-1,4-dione], in the series with HT-1080 (setting [2]), the pIC50 was 8.81. In addition, the cellular efficacy/toxicity window with HT-1080 is on record as 25634-fold. In addition, the CC50 at 18 h in series [1] (setting [3]) was found to be 40 µM.
For `O=C1C(O)=C(C(c2ccccc2)c2ccc(F)cc2)C(=O)c2ccccc21` (stereo not shown) [iQFerr34, 2-[(4-fluorophenyl)-phenylmethyl]-3-hydroxy 1,4-naphtoquinone], in the series on HT-1080 (setting [4]), the pIC50 is 4.15. Further, the CC50 at 18 h in series [1] (setting [3]) was 35 µM.
For the compound `CC(=O)Nc1ccc(NC2=C(Cl)C(=O)c3ccccc3C2=O)cc1` [iQFerr36, N-{4-[(3-chloro-1,4-dioxo-1,4-dihydronaphthalen-2 yl)amino]phenyl} acetamide], the pIC50 in the series on HT-1080 (setting [2]) is 8.13. Also, the cellular efficacy/toxicity window in the series on HT-1080 was 77-fold. The CC50 at 18 h in series [1] (setting [3]) worked out at 0.564 µM.
For the compound `O=C1C(Cl)=C(Nc2ccc(O)cc2)C(=O)c2ccccc21` [iQFerr11, 2-chloro-3-(4-hydroxy-phenylamino)-1,4-naphtoquinone], in the series on HT-1080 (setting [2]), the negative logarithm of the IC50 (pIC50) is 8.22. In the series on HT-1080, the cellular efficacy/toxicity window is 48-fold. In series [1] (setting [3]), the CC50 at 18 h was found to be 0.293 µM.
The corresponding values for `Cc1ccc(CC2=CC(=O)c3ccccc3C2=O)cc1` [iQFerr30, 2-(4-methylbenzyl)-1,4-naphtoquinone] are 7.42, 132-fold and 5.06 µM.
For `Cc1ccc(NC2=CC(=O)C=CC2=O)c(C)c1` [iQFerr25, 2-(2,4-dimethylanilino)-benzo-1,4-quinone], in the series on HT-1080 (setting [2]), the pIC50 was 6.76. In the series with HT-1080, the cellular efficacy/toxicity window is given as 5-fold. Moreover, the CC50 at 18 h in series [1] (setting [3]) is 0.759 µM.
With `Cc1ccc(NC2=C(Cl)C(=O)c3ccccc3C2=O)cc1` [iQFerr13, 2-chloro-3-(4-methylanilino)-1,4-naphtoquinone], in the series with HT-1080 (setting [2]), the pIC50 is 8.52. In addition, in the series with HT-1080, the cellular efficacy/toxicity window was 126-fold. Further, the CC50 at 18 h in series [1] (setting [3]) is 0.38 µM.
The matching figures for `CC(=O)c1cccc(NC2=C(Cl)C(=O)c3ccccc3C2=O)c1` [iQFerr09, 2-(3-acetylanilino)-3-chloro-1,4-naphtoquinone]: 7.20, 13-fold and 0.81 µM.
The corresponding values for `CC(=O)Nc1ccc(N(CCCCCC(N)=O)C2=CC(=O)c3ccccc3C2=O)cc1` [iQFerr49, 6-[(1,4-dioxo-1,4-dihydronaphthalen-2-yl)(4-acetamidophenyl)amino] hexanamide] are 7.64, 4895-fold and 112 µM.
